Assay results from US7285543B2, “Purine inhibitors of fructose-1,6-bisphosphatase” (Metabasis Therapeutics, Inc., priority 1997, dated 2007).

Assays:
[1] = molecular target: T1, Glycogen Phosphorylase (rabbit muscle) (Oryctolagus cuniculus, UniProt P00489); assay: AMP site/enzyme selectivity: glycogen phosphorylase
T1 sequence (P00489 2-843 limits assumed): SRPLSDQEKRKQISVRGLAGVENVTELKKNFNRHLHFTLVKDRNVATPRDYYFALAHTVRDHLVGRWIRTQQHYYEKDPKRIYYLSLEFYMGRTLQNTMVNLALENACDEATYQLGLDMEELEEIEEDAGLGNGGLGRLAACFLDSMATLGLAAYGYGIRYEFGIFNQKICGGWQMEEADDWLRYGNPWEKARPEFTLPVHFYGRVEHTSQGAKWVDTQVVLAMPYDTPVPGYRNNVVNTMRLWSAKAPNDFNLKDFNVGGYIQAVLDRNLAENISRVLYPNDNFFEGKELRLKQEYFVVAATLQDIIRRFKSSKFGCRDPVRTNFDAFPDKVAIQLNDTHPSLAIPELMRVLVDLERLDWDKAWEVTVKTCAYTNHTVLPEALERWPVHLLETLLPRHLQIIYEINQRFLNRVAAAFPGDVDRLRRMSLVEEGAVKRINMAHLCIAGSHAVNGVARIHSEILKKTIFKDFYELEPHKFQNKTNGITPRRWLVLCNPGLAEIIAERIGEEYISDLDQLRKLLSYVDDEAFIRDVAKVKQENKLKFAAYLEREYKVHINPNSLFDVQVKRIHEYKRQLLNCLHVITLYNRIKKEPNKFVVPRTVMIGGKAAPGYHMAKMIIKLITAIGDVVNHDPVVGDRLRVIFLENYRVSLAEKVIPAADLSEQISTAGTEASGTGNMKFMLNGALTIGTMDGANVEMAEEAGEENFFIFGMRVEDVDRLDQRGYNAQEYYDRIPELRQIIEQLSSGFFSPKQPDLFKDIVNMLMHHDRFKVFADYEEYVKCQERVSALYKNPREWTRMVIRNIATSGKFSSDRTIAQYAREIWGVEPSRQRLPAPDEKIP
Description: To determine the selectivity of compounds towards FBPase, effects of FBPase inhibitors on 5 key AMP binding enzymes were measured using the assays described below: • Adenosine Kinase: Human adenosine kinase was purified from an E. coli expression system as described by Spychala et al. (Spychala, J., Datta, N. S., Takabayashi, K., Datta, M., Fox, I. H., Gribbin, T., and Mitchell, B. S. Proc. Natl. Acad. Sci. USA 1996, 93, 1232-1237). Activity was measured essentially as described by Yamada et al. (Yamada, Y., Goto, H., Ogasawara, N. Biochim. Biophys. Acta 1988, 660, 36-43.) with a few minor modifications. Assay mixtures contained 50 mM TRIS-maleate buffer, pH 7.0, 0.1% BSA, 1 mM ATP 1 mM MgCl2, 1.0 μM [U-^14C] adenosine (400-600 mCi/mmol) and varying duplicate concentrations of inhibitor. ^14C-AMP was separated from unreacted ^14C-adenosine by absorption to anion exchange paper (Whatman) and quantified by scintillation counting. • Adenosine Monophosphate Deaminase: Porcine heart AMPDA was purified essentially as described by Smiley et al. (Smiley, K. L., Jr, Berry, A. J., and Suelter, C. H. J. Biol. Chem. 1967, 242, 2502-2506) through the phosphocellulose step. Inhibition of AMPDA activity was determined at 37° C. in a 0.1 mL assay mixture containing inhibitor, ˜0.005U AMPDA, 0.1% bovine serum albumin, 10 mM ATP, 250 mM KCl, and 50 mM MOPS at pH 6.5. […]

rat liver FBPase = molecular target: T2, rat liver FBPase (Rattus norvegicus, UniProt P19112); assay: In vitro inhibition of rat liver FBPase; type: biochemical
T2 construct: made in house; host or cells: E. coli BL21
T2 sequence (P19112 2-363 limits assumed): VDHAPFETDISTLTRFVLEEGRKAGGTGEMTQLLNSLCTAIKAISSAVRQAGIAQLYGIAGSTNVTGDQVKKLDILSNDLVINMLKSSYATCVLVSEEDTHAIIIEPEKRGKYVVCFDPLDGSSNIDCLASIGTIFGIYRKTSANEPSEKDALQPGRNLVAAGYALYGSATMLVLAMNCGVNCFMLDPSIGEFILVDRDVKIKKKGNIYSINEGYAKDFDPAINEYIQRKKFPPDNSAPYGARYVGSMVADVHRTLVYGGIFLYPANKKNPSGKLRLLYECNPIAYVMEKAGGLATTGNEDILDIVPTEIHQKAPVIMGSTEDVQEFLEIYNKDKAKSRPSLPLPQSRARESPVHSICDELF
Description: (§1) Mouse liver FBPase was obtained by homogenizing freshly isolated mouse liver in 100 mM Tris-HCl buffer, pH 7.4, containing 1 mM EGTA, and 10% glycerol. […] This fraction was redissolved in the homogenization buffer and desalted on a PD-10 gel filtration column (Biorad) eluted with same. This partially purified fraction was used for enzyme assays. Both rat liver and mouse liver FBPase were assayed as described for human liver FBPase.

mouse liver FBPase = molecular target: T3, mouse liver FBPase (Mus musculus, UniProt Q9QXD6); assay: In vitro inhibition of mouse liver FBPase; type: biochemical
T3 construct: This partially purified fraction was used for enzyme assays; from tissue; host or cells: mouse liver
T3 sequence (Q9QXD6 2-338 limits assumed): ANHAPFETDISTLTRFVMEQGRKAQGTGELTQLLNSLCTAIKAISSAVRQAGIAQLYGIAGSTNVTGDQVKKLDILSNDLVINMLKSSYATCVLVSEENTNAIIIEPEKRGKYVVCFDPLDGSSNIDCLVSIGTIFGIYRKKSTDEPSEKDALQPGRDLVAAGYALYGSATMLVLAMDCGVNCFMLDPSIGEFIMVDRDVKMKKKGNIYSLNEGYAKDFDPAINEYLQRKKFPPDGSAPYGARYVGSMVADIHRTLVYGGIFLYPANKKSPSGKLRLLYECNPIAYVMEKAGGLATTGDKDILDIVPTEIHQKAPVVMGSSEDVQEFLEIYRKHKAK
Description: as §1

Human adenosine kinase = molecular target: T4, Human adenosine kinase (Homo sapiens, UniProt P55263); assay: AMP site/enzyme selectivity: adenosine kinase; type: biochemical; details: selectivity table; read-out: Adenosine Kinase (inh.)
T4 construct: made in house; host or cells: E. coli

human liver FBPase = molecular target: T5, human liver FBPase (Homo sapiens, UniProt P09467); assay: Inhibition of human liver FBPase (coupled spectrophotometric assay); type: biochemical
T5 construct: made in house; host or cells: E. coli BL21
T5 sequence (P09467 2-338 limits assumed): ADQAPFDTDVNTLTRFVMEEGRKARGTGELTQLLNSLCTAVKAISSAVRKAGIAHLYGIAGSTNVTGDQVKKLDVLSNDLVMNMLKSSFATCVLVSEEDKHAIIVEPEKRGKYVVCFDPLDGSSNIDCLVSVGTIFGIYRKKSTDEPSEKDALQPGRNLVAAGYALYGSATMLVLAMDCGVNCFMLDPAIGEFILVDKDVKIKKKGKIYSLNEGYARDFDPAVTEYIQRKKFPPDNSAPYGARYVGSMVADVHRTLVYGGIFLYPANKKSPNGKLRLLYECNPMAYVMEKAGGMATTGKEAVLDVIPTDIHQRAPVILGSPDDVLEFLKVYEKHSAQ

[2] = molecular target: T6, Adenylate Kinase (rabbit muscle) (Oryctolagus cuniculus, UniProt P00569); assay: AMP site/enzyme selectivity: adenylate kinase; type: biochemical; details: selectivity table; read-out: Adenylate Kinase (inh.)
T6 construct: purchased Sigma
T6 sequence (P00569 1-194): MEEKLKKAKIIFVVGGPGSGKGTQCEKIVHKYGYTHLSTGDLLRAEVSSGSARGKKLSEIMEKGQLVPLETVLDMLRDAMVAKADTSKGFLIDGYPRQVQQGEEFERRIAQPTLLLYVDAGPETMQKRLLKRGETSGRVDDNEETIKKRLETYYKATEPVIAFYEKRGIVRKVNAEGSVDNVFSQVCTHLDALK

rat hepatocytes = assay: Inhibition of gluconeogenesis (glucose production from lactate/pyruvate) in rat hepatocytes; type: cell-based; details: Hepatocyte; from lactate/pyruvate, isolated rat hepatocytes
Description: Hepatocytes were prepared from overnight fasted Sprague-Dawley rats (250-300 g) according to the procedure of Berry and Friend (Berry, M. N., Friend, D. S., J. Cell. Biol. 1969, 43, 506-520) as modified by Groen (Groen, […]., Eur. J. Biochem. 1982, 122, 87-93). […] Incubations were carried out in a 95% oxygen, 5% carbon dioxide atmosphere in closed, 50-mL Falcon tubes submerged in a rapidly shaking water bath (37° C.). After 1 hour, an aliquot (0.25 mL) was removed, transferred to an Eppendorf tube and centrifuged. 50 μl of supernatant was then assayed for glucose content using a Sigma Glucose Oxidase kit as per the manufacturer's instructions.

T4 sequence (P55263 1-345 isoform P55263-2): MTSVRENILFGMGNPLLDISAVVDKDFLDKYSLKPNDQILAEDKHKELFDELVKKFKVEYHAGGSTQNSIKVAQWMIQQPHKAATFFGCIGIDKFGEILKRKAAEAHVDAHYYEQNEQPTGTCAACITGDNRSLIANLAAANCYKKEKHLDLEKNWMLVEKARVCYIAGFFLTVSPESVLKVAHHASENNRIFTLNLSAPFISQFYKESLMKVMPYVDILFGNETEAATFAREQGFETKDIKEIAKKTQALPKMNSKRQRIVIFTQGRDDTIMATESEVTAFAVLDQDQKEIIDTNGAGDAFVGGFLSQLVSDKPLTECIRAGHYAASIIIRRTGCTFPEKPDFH

Nc1ncnc2c1nc(-c1ccc(P(=O)(O)O)o1)n2CCc1ccccc1 [Compound 2.1, N^9-(2-phenethyl)-8-(2-(5-phosphono)furanyl)adenine]
EC50 [1]: > 250 µM
IC50 (rat liver FBPase): 100 µM
IC50 (mouse liver FBPase): > 20 µM
IC50 (Human adenosine kinase): > 10 µM
IC50 (human liver FBPase): 5 µM
IC50 [2]: > 500 µM
IC50 (rat hepatocytes): 90 µM
